# Columns and labels:
# [1] = Solubility in buffers, water and simulated vaginal fluid at 37° C.; details: for pH of solution at 2 hours: 37° C.
# Method: About 4 mg of Compound I Pattern 1 was added into 2 mL of buffer solution.
# (§1) Solubility was tested in five media, pH 3.0 citrate buffer, pH 4.5 acetate buffer, pH 6.8 phosphate buffer, water, simulated vaginal fluid (pH 4.2) at 37° C. for 0.5 h and 2 h.
# The salt amount used is equivalent to 10 mg anhydrous free base. […] The obtained clear solutions were analyzed by pH meter for pH, and solubility was determined by observation.
# as §1
# [2] = Hygroscopicity by DVS at 25° C.; type: physicochemical; details: cycle of 40-0-95-0-45% relative humidity
# [3] = Hygroscopicity by DVS at 25° C.; type: physicochemical; details: for XRPD after DVS test: 25° C.
# Method: Hygroscopicity was investigated by DVS at 25° C., using the following method: • Method: 40-0-95-0-40% RH, dm/dt=0.002
# [4] = Polymorph screening by equilibration in solvents; type: physicochemical
# [5] = Bulk (accelerated) stability, one week, HPLC and XRPD; details: for Bulk (HPLC) Purity: 1 week
# Method: Bulk stability: Accelerated stability experiments were conducted at 25° C./92% RH and 40° C./75% RH in an open container, 60° C. in a tight container for one week.
# Samples were characterized by XRPD and HPLC and inspected for color change.
# Accelerated stability experiments were conducted at 25° C./92% RH in an open container, at 40° C./75% RH in an open container, and at 60° C. in a tight container for one week.
# [6] = 37 °C, pH 3, aqueous buffer, thermodynamic from solid
# [7] = 37 °C, pH 4.2, fassgf or other biorelevant, thermodynamic from solid
# [8] = 37 °C, pH 4.5, aqueous buffer, thermodynamic from solid
# [9] = 37 °C, pH 6.8, aqueous buffer, thermodynamic from solid
# [10] = 37 °C, water, thermodynamic from solid
smiles,measurement,setting,value
"CCOC(=O)[C@H](C)N[P@](=O)(COCCn1cnc2c(OC)nc(N)nc21)OCc1ccccc1.O=C(O)/C=C/C(=O)O (single isomer, unassigned) [Compound III]",solubility at 0.5 h,[1]; [6],> 2000 µg/mL
same,solubility at 2 h,[1]; [6],> 2000 µg/mL
same,solubility at 0.5 h,[1]; [7],> 2000 µg/mL
same,solubility at 2 h,[1]; [7],> 2000 µg/mL
same,solubility at 0.5 h,[1]; [8],> 2000 µg/mL
same,solubility at 2 h,[1]; [8],> 2000 µg/mL
same,solubility at 0.5 h,[1]; [9],> 2000 µg/mL
same,solubility at 2 h,[1]; [9],> 2000 µg/mL
same,solubility,"[1]; 37 °C, thermodynamic from solid",> 2000 µg/mL
same,solubility at 0.5 h,[1]; [10],> 2000 µg/mL
same,solubility at 2 h,[1]; [10],> 2000 µg/mL
same,pH of solution at 2 hours,"[1]; ES1: pH 3.0, 100 mM citrate buffer",2.83
same,pH of solution at 2 hours,"[1]; ES2: pH 4.5, 50 mM acetate buffer",4.12
same,pH of solution at 2 hours,"[1]; ES3: pH 6.8, 50 mM phosphate buffer",6.44
same,pH of solution at 2 hours,[1]; ES4: Water,2.78
same,pH of solution at 2 hours,[1]; ES5: Simulated vaginal fluid (pH adjusted by 0.1N NaOH),5.37
same,Fold increase of retained water content over Compound II,[2],40 fold
same,Desorp. (%) Cycle 1,"[3]; DVS 25° C., 0% RH",0.00%
same,Desorp. (%) Cycle 2,"[3]; DVS 25° C., 0% RH",0.00%
same,Sorp. (%) Cycle 1,"[3]; DVS 25° C., 0% RH",0.00%
same,Sorp. (%) Cycle 2,"[3]; DVS 25° C., 0% RH",0.00%
same,Desorp. (%) Cycle 1,"[3]; DVS 25° C., 10% RH",0.07%
same,Desorp. (%) Cycle 2,"[3]; DVS 25° C., 10% RH",0.07%
same,Sorp. (%) Cycle 1,"[3]; DVS 25° C., 10% RH",0.07%
same,Sorp. (%) Cycle 2,"[3]; DVS 25° C., 10% RH",0.07%
same,Desorp. (%) Cycle 1,"[3]; DVS 25° C., 20% RH",0.15%
same,Desorp. (%) Cycle 2,"[3]; DVS 25° C., 20% RH",0.15%
same,Sorp. (%) Cycle 1,"[3]; DVS 25° C., 20% RH",0.14%
same,Sorp. (%) Cycle 2,"[3]; DVS 25° C., 20% RH",0.14%
same,Desorp. (%) Cycle 1,"[3]; DVS 25° C., 30% RH",0.23%
same,Desorp. (%) Cycle 2,"[3]; DVS 25° C., 30% RH",0.23%
same,Sorp. (%) Cycle 1,"[3]; DVS 25° C., 30% RH",0.22%
same,Sorp. (%) Cycle 2,"[3]; DVS 25° C., 30% RH",0.22%
same,Desorp. (%) Cycle 1,"[3]; DVS 25° C., 40% RH",0.30%
same,Desorp. (%) Cycle 2,"[3]; DVS 25° C., 40% RH",0.32%
same,Sorp. (%) Cycle 1,"[3]; DVS 25° C., 40% RH",0.29%
same,Sorp. (%) Cycle 2,"[3]; DVS 25° C., 40% RH",0.30%
same,Desorp. (%) Cycle 2,"[3]; DVS 25° C., 50% RH",0.41%
same,Sorp. (%) Cycle 1,"[3]; DVS 25° C., 50% RH",0.39%
same,Desorp. (%) Cycle 2,"[3]; DVS 25° C., 60% RH",0.52%
same,Sorp. (%) Cycle 1,"[3]; DVS 25° C., 60% RH",0.47%
same,Desorp. (%) Cycle 2,"[3]; DVS 25° C., 70% RH",0.67%
same,Sorp. (%) Cycle 1,"[3]; DVS 25° C., 70% RH",0.59%
same,Desorp. (%) Cycle 2,"[3]; DVS 25° C., 80% RH",0.81%
same,Sorp. (%) Cycle 1,"[3]; DVS 25° C., 80% RH",0.71%
same,Desorp. (%) Cycle 2,"[3]; DVS 25° C., 90% RH",0.97%
same,Sorp. (%) Cycle 1,"[3]; DVS 25° C., 90% RH",0.92%
same,Desorp. (%) Cycle 2,"[3]; DVS 25° C., 95% RH",1.01%
same,Sorp. (%) Cycle 1,"[3]; DVS 25° C., 95% RH",1.01%
same,Hygroscopicity,"[3]; DVS at 25° C., in words",slightly hygroscopic
same,XRPD after DVS test,[3]; after DVS 40-0-95-0-40% RH,No form change
same,XRPD after DVS test,"[3]; after humidity cycle 40-0-95-0-40% RH, listed as Compound III Pattern 2, monofumarate",No form change
same,XRPD after DVS test,"[3]; after humidity cycle 40-0-95-0-40% RH, monofumarate",lose one of the peaks
same,Water uptake,"[3]; up to / in 95% RH, DVS 25° C.",about 1.0%
same,Crystal modification after 1 week equilibration at 25° C.,[4]; PS1: IPA,Compound V Pattern 2
same,Crystal modification after 1 week equilibration at 25° C.,[4]; PS2: Heptanes,Compound III Pattern 2
same,Crystal modification after 1 week equilibration at 25° C.,[4]; PS3: Water,Compound III Pattern 3
same,Crystal modification after 1 week equilibration at 25° C.,[4]; PS4: ACN,Compound III Pattern 4
same,Crystal modification after 1 week equilibration at 25° C.,[4]; PS5: MEK,Compound III Pattern 5
same,Crystal modification after 1 week equilibration at 25° C.,"[4]; PS7: IPA/heptanes (3/10, v/v)",Compound III Pattern 2
same,Crystal modification after 1 week equilibration at 25° C.,"[4]; PS8: water/ACN (2.9/97.1, v/v)",Compound III Pattern 4
same,Crystal modification after 1 week equilibration at 25° C.,"[4]; PS9: IPA/MTBE (1/3, v/v)",Compound III Pattern 6
same,Crystal modification after 1 week equilibration at 25° C.,"[4]; PS10: EA/toluene (1/3, v/v)",Compound III Pattern 2
same,Dissociation of the salt during equilibration experiments,"[4]; equilibration in solvents, 1 week, 25° C.",dissociation was observed
same,Stability after exposure to the three conditions,"[5]; 25° C./92% RH open, 40° C./75% RH open, 60° C. tight container, one week",good physical stability
same,Bulk (HPLC) Purity,"[5]; BS1: solid state, 25° C./92% RH, open container",98.7%
same,Bulk (HPLC) Purity,"[5]; BS2: solid state, 40° C./75% RH, open container",97.2%
same,Bulk (HPLC) Purity,"[5]; BS3: solid state, 60° C., tight container",97.3%
same,"HPLC purity, Initial",[5]; initial chemical purity before storage,98.8%

# From patent US20250295679A1, “Compositions and Dosage Forms for Treatment of HPV Infection and HPV-Induced Neoplasia” (priority 2022, published 2025)
